Assay results from publication PMC6199744, “Development of Chemical Proteomics for the Folateome and Analysis of the Kinetoplastid Folateome” (ACS Infectious Diseases, 2018).

Tested on: L. major lysate proteins
Experiment: Multitargeted bead mixture chemoproteomics, single concentration competition, proteome-wide
Type: binding
Conditions: for fold change: vehicle control = 1

Which results are given for `NCCCNc1ccc(C(=O)NC(CCC(=O)O)C(=O)O)cc1` (stereo not drawn) [compound 7]?
fold change vs vehicle control (protein LMJF.28.0110 PROTEASOME BETA 3 SUBUNIT, PUTATIVE): 0.99; fold change vs vehicle control (protein LMJF.28.0490 PROPIONYL-COA C[…] CHAIN, PUTATIVE): 1.21; fold change (protein LMJF.28.0710 HYPOTHETICAL PROTEIN, CONSERVED (SNARE associated Golgi protein, putative)): 0.86; fold change vs vehicle control (protein LMJF.28.0930 HYPOTHETICAL PROTEIN, CONSERVED): 0.98; fold change vs vehicle control (protein LMJF.28.0960 40S RIBOSOMAL PROTEIN S14): 0.99; fold change vs vehicle control (protein LMJF.28.1530 ATP DEPENDENT DEAD-BOX HELICASE, PUTATIVE): 0.89; fold change relative to vehicle control (protein LMJF.28.1730, PROTEASOME REGULATORY NON-ATP-ASE SUBUNIT 2, PUTATIVE): 1.27; fold change relative to vehicle control (protein LMJF.28.2310, EUKARYOTIC TRANSLATION INITIATION FACTOR, PUTATIVE): 0.98; fold change vs vehicle control (protein LMJF.28.2430 VACUOLAR ATP SYNTHASE SUBUNIT B, PUTATIVE): 1.03; fold change relative to vehicle control (protein LMJF.28.2770, HEAT-SHOCK PROTEIN HSP70, PUTATIVE): 1.05; fold change (protein LMJF.28.2910 GLUTAMATE DEHYDROGENASE, PUTATIVE): 0.88; fold change vs vehicle control (protein LMJF.29.0120 PROTEASOME REGULATORY NON-ATPASE SUBUNIT, PUTATIVE): 1.1; fold change (protein LMJF.29.0620 ATP-BINDING CASSETTE PROTEIN SUBFAMILY A, MEMBER 10, PUTATIVE): 0.79; fold change vs vehicle control (protein LMJF.29.0760 […] BI[…], PUTATIVE,HEAT SHOCK PROTEIN 90, PUTATIVE): 1.16; fold change relative to vehicle control (protein LMJF.29.0850, HIGH MOBILITY GROUP PROTEIN HOMOLOG TDP-1, PUTATIVE): 0.78; fold change vs vehicle control (protein LMJF.29.0940 HY[…], CONSERVED): 1.11; fold change vs vehicle control (protein LMJF.29.1160 TRYPAREDOXIN): 0.93; fold change vs vehicle control (protein LMJF.29.1240 HY[…], UNKNOWN FUNCTION): 1.04; fold change vs vehicle control (protein LMJF.29.1270 100 kDa heat shock protein (Hsp100)): 1.12; fold change vs vehicle control (protein LMJF.29.1310 CARNITINE/CHOLINE ACETYLTRANSFERASE, PUTATIVE): 1; fold change relative to vehicle control (protein LMJF.29.1760, PARAFLAGELLAR ROD PROTEIN 1D, PUTATIVE): 1.2; fold change vs vehicle control (protein LMJF.29.1780 DIPHTHAMIDE SYNTHESIS PROTEIN, PUTATIVE): 0.94; fold change (protein LMJF.29.2200 GTP-BINDING PROTEIN, PUTATIVE (dynamin-1-like protein)): 0.93; fold change (protein LMJF.29.2310 ENOYL-COA HYDRATASE/ISOMERASE-LIKE PROTEIN): 0.93; fold change vs vehicle control (protein LMJF.29.2360 ASPARTYL AMINOPEPTIDASE, PUTATIVE,METALLO-PEPTIDASE, CLAN MH, FAMILY M20): 1.05; fold change (protein LMJF.29.2860 40S RIBOSOMAL PROTEIN S19-LIKE PROTEIN): 1.02; fold change (protein LMJF.30.0580 HYPOTHETICAL PROTEIN, CONSERVED (AMP-binding enzyme, putative)): 0.85; fold change (protein LMJF.30.0850 SURFACE PROTEIN AMASTIN, PUTATIVE): 0.92; fold change vs vehicle control (protein LMJF.30.1250 PYRIDOXAL KINASE, PUTATIVE): 1.11; fold change vs vehicle control (protein LMJF.30.2580 RETICULON DOMAIN PROTEIN, 22 KDA POTENTIALLY AGGRAVATING PROTEIN (PAPLE22)): 0.95; fold change relative to vehicle control (protein LMJF.30.3090, HY[…], CONSERVED (RNA-binding protein 42, putative)): 1.06; fold change vs vehicle control (protein LMJF.30.3240 GLUTAMYL-TRNA SYNTHETASE, PUTATIVE): 0.99; fold change (protein LMJF.30.3430 HYPOTHETICAL PROTEIN, CONSERVED (protein mkt1, putative)): 1; fold change (protein LMJF.30.3520 S-ADENOSYLMETHIONINE SYNTHETASE): 0.93; fold change (protein LMJF.30.3570 ZINC FINGER-DOMAIN PROTEIN, PUTATIVE): 0.92; fold change relative to vehicle control (protein LMJF.31.0080, HY[…], CONSERVED): 1.21; fold change vs vehicle control (protein LMJF.31.0340 AMINO ACID PERMEASE, PUTATIVE): 1.04; fold change (protein LMJF.31.1130 N-ACYL-L-AMINO ACID AMIDOHYDROLASE, PUTATIVE): 1.03; fold change vs vehicle control (protein LMJF.31.1640 THIOLASE PROTEIN-LIKE PROTEIN): 0.99; fold change relative to vehicle control (protein LMJF.31.2150, PROSTAGLANDIN F2-ALPHA SYNTHASE/D-ARABINOSE DEHYDROGENASE): 2.99; fold change vs vehicle control (protein LMJF.31.2250 3,2-TRANS-ENOYL-COA ISOMERASE, MIT[…], PUTATIVE): 1.97; fold change vs vehicle control (protein LMJF.32.0750 RNA BINDING PROTEIN, PUTATIVE): 0.99; fold change vs vehicle control (protein LMJF.32.1060 DYNEIN, PUTATIVE): 1.08; fold change relative to vehicle control (protein LMJF.32.1820, IRON […], PUTATIVE): 1.09; fold change relative to vehicle control (protein LMJF.32.2320, C-14 STEROL REDUCTASE, PUTATIVE): 1.65; fold change vs vehicle control (protein LMJF.32.3870 MYOSIN XXI): 0.92; fold change relative to vehicle control (protein LMJF.33.0240, THIOL-DEPENDENT REDUCTASE 1): 1.07; fold change (protein LMJF.33.0280 HYPOTHETICAL PROTEIN, CONSERVED): 0.96; fold change relative to vehicle control (protein LMJF.33.0890, HYPOTHETICAL PROTEIN, CONSERVED): 0.93; fold change vs vehicle control (protein LMJF.33.1070 HY[…], UNKNOWN FUNCTION): 1.09; fold change vs vehicle control (protein LMJF.33.1330 CYSTEINE CONJUGATE BETA-LYASE, AMINOTRANSFERASE- LIKE PROTEIN): 0.98; fold change (protein LMJF.33.1590 HYPOTHETICAL PROTEIN, CONSERVED (3-ketoacyl-CoA reductase, putative)): 1; fold change relative to vehicle control (protein LMJF.33.1860, ATP-BINDING CASSETTE PROTEIN SUBFAMILY D, MEMBER 3, PUTATIVE): 1.06; fold change relative to vehicle control (protein LMJF.33.2340, SUCCINYL-COA:3-KETOACID-COENZYME A TRANSFERASE, MIT[…], PUTATIVE): 1.19; fold change relative to vehicle control (protein LMJF.33.2440, HY[…], CONSERVED): 1.14; fold change relative to vehicle control (protein LMJF.33.2540, CARBOXYPEPTIDASE, PUTATIVE,METALLO-PEPTIDASE, CLAN MA(E), FAMILY M32): 1.06; fold change (protein LMJF.33.3150 40S RIBOSOMAL PROTEIN S13, PUTATIVE): 0.96; fold change relative to vehicle control (protein LMJF.34.0140, MALATE DEHYDROGENASE): 6.88; fold change vs vehicle control (protein LMJF.34.0440 RIBOSOMAL PROTEIN S25): 1.13; fold change relative to vehicle control (protein LMJF.34.2580, HY[…], CONSERVED (ALBA-domain protein 3)): 1.04; fold change relative to vehicle control (protein LMJF.34.3250, PUTATIVE PYRUVATE/INDOLE-PYRUVATE CARBOXYLASE, PUTATIVE): 1.08; fold change (protein LMJF.34.4370 20S PROTEASOME BETA 7 SUBUNIT, (PUTATIVE)): 0.97; fold change vs vehicle control (protein LMJF.34.4620 HYPOTHETICAL PROTEIN, CONSERVED): 1.3; fold change (protein LMJF.35.0070 PROHIBITIN, PUTATIVE): 1.03; fold change vs vehicle control (protein LMJF.35.0360 ENOYL-COA HYDRATASE/ISOMERASE FAMILY PROTEIN, CONSERVED): 1.09; fold change (protein LMJF.35.0370 ATP-DEPENDENT DEAD-BOX RNA HELICASE, PUTATIVE): 0.98
